These results are taken from the supplement of paper PMC10307832.

Assay in all cases: relative viability (nuclei count vs DMSO), 5 days (fraction); higher = more cells survive
Compound in the assay “Crenolanib + Pictilisib”: CC1(COc2ccc3c(c2)ncn3-c2ccc3cccc(N4CCC(N)CC4)c3n2)COC1 [Crenolanib] + CS(=O)(=O)N1CCN(Cc2cc3nc(-c4cccc5[nH]ncc45)nc(N4CCOCC4)c3s2)CC1 [Pictilisib] (partner 1 µM)
The procedure, abridged:
(§1)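 Each reported value is a median over duplicate plates. It expresses relative viability: treated-well nuclei count divided by vehicle-well nuclei count. Lung cancer cell lines in 1536-well plates were dosed by pin tool a day after seeding, alone with one drug or with a fixed anchor-drug dose plus five library-drug doses (not always all listed) in √10 steps, and nuclei were counted after 5 days.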

Compound in the assay “Tivantinib + Lapatinib”: O=C1NC(=O)[C@@H](c2cn3c4c(cccc24)CCC3)[C@@H]1c1c[nH]c2ccccc12 [Tivantinib] + CS(=O)(=O)CCNCc1ccc(-c2ccc3ncnc(Nc4ccc(OCc5cccc(F)c5)c(Cl)c4)c3c2)o1 [Lapatinib] (partner 2 µM)
In outline: as §1

Compound in the assay “Tivantinib + Foretinib”: O=C1NC(=O)[C@@H](c2cn3c4c(cccc24)CCC3)[C@@H]1c1c[nH]c2ccccc12 [Tivantinib] + COc1cc2c(Oc3ccc(NC(=O)C4(C(=O)Nc5ccc(F)cc5)CC4)cc3F)ccnc2cc1OCCCN1CCOCC1 [Foretinib] (partner 0.25 µM)
The procedure, abridged:
as §1

Compound in the assay “Tivantinib + Vorinostat”: O=C1NC(=O)[C@@H](c2cn3c4c(cccc24)CCC3)[C@@H]1c1c[nH]c2ccccc12 [Tivantinib] + O=C(CCCCCCC(=O)Nc1ccccc1)NO [Vorinostat] (partner 1 µM)
The procedure, abridged:
as §1

For UMC-11, the relative viability stood at 0.76 in the assay with Crenolanib + Pictilisib (first compound 0.01 µM); 0.834 in the assay with Crenolanib + Pictilisib (first compound 0.03162 µM); 0.787 with Crenolanib + Pictilisib (first compound 0.1 µM); 0.848 in the assay with Crenolanib + Pictilisib (first compound 0.3162 µM); 0.733 with Crenolanib + Pictilisib (first compound 1 µM); 1.03 in the assay with Tivantinib + Lapatinib (first compound 0.01 µM). In addition, the relative viability was 0.673 with Tivantinib + Lapatinib (first compound 0.03162 µM); 1.03 with Tivantinib + Lapatinib (first compound 0.1 µM); 1.08 with Tivantinib + Lapatinib (first compound 0.3162 µM); 1.04 with Tivantinib + Foretinib (first compound 0.01 µM); 0.975 with Tivantinib + Foretinib (first compound 0.03162 µM); 0.944 with Tivantinib + Foretinib (first compound 0.1 µM). Also, the relative viability with Tivantinib + Foretinib (first compound 0.3162 µM) is 1.01; in the assay with Tivantinib + Vorinostat (first compound 0.01 µM) it was 0.383; with Tivantinib + Vorinostat (first compound 0.03162 µM), 0.392; with Tivantinib + Vorinostat (first compound 0.1 µM) it was 0.328; with Tivantinib + Vorinostat (first compound 0.3162 µM), 0.385.
